Assays:
[1] = tested on: tumor, liver, and lung tissues; experiment: Histology (H&E) of tumor, liver and lung tissues of tumor-bearing animals; assay type: in vivo, mouse
Excerpt: FIG. 4. Histology of tissues from untreated and Go6976-treated tumor-bearing animals. Tumor growth and treatment conditions are the same as described for FIG. 1. Tumor, liver, and lung tissues from untreated and treated tumor bearing animals were dissected 11 days after the initiation of treatment and 32 days after implantation of the cells. Tissues were processed for hematoxylin/eosin (H&E) staining, examined under a light microscope, and photographed at the indicated magnifications. Arrows show mitotic cells in untreated tumor tissue. Residual tumor (T) and necrotic cells (N) of the treated tumor are shown. Stars in the treated block indicate pycnotic cells with apparent fragmentation and clumping of nuclear DNA.
(§1) Animal model. The tumorigenic potential of CSMLO and dnIkkβ-expressing stable transfectants was examined in female A-J mice 2-3 weeks old. For each mouse, 1.0 s×10^6 cells were implanted under the dorsal skin. Palpable tumors were consistently detected within 10-15 days following implantation of the cells. Body weight and tumor volumes (32) were monitored weekly. Go6976 (0.5 ml of 0.05 mM stock solution in 0.1% DMSO) was administered to each animal locally two times a week. The control group received the same volume of the solvent (0.5 ml of 0.1%).

[2] = Physical condition and lethality of treated mice; assay type: in vivo
Method: (§2) FIG. 2. Regression of tumors by Go6976. (A) CSMLO cells were implanted on day 0 (indicated by the arrow) as for FIG. 1. Go6976 was administered on day 21 (indicated by the arrow), locally under the tumors of the five animals with comparatively larger tumors (▪). Another five animals received the same volume of 0.1% DMSO (♦) on the same day, and the control group of five animals received nothing (□). (B) One representative of five animals from each group. Animals 1 and 2 are DMSO- and Go6976-treated non-tumor-bearing animals, respectively. Animal 3 is tumor-bearing and without treatment. Animals 4 and 5 represent tumor-bearing groups treated with DMSO and Go6976, respectively. Animal 6 is an A-J mouse that received nothing.
as §1

ccD1 = experiment: Level of ccD1 by Western blot analysis; assay type: cell-based, mouse; details: CSMLO cells transfected with dnIkkβ
Excerpt: FIG. 5. Inhibition of NF-κB activation and down stream events by stable expression of dominant-negative IκB-kinase β (dnIkkβ). (A Upper) dnIkkβ-Expressing transfectant cells by light microscopy (i), 4′,6-diamidino-2-phenylindole (DAPI)-stained nuclei (ii), and immunofluorescence with anti-FLAG antibody in the presence of the secondary antibody (iii). The positive signals show dnIkkβ-conjugated FLAG protein in the cytoplasm. (Lower) Processed vector-control plasmid-transfected CSMLO cells in which no FLAG protein could be detected (vi). (B Upper) Active NF-κB was determined by its [γ-^32P]DNA binding activity by EMSA, in three dnIkkβ-expressing stable transfectants (dnIkkβ1-1, dnIkkβ1-3, and dnIkkβ1-5) and (Lower) in parent CSMLO cells and vector control plasmid expressing transfectant (vect1-5). (C Upper) The level of ccD1 in the same three-dnIkkβ-expressing CSMLO and vector control transfected cells, as measured by Western blot analysis. (Lower) Actin analyzed similarly by immunodetection with anti-β-actin antibody that serves as a loading control.

CSMLO cells = experiment: Growth of CSMLO cells under culture conditions; assay type: cell-based, mouse; details: short-term drug treatment with 10 μM Go6976
Method: Materials. Mouse mammary adenocarcinoma cells in culture (CSMLO) were grown in complete medium supplemented with 10% FBS and growth factors as described (7, 11, 12). Anti-human ER antibody (SC543), anti-mouse ccD1 antibody, anti-p50, and anti-p65 antibodies for the NF-κB subunits were obtained from Santa Cruz Biotechnology. Rabbit polyclonal IgG raised against the conserved region of actin and anti-Flag (M2) monoclonal antibody were obtained from Sigma-Aldrich. The fluorescein-conjugated goat anti-mouse IgG was from Oncogene Science. Complementary strands of the oligonucleotide (5′-[…]-3′) containing the NF-κB motif (bold faced) were custom synthesized by Integrated DNA Technologies (Coralville, Iowa). The double-stranded NF-κB-oligonucleotide was end-labeled with [γ-^32P]ATP (NEN) and T4 kinase (New England Biolabs) as described (7), and was used for electrophoretic mobility shift assay (EMSA). Hydrocortisone, insulin, DTT, dimethyl sulfoxide (DMSO), and phenylmethylsulfonyl fluoride were obtained from Sigma. Hybond nitrocellulose membrane and ECL (enhanced chemiluminescence) immunodetection kits were obtained from Amersham Pharmacia. Go6976, a nonglyosidic indolcarbazole, and an inhibitor of protein kinase C alpha and beta was purchased from Calbiochem-Novabiochem (28, 29).

CSMLO-induced tumors = experiment: Tumor growth in mouse tumor model (CSMLO cells implanted in female A-J mice); assay type: in vivo
Method: FIG. 1. Inhibition of growth of tumors by Go6976. Tumors were generated in female A-J mice by implantation of CSMLO cells (10^6) on day 0 (indicated by the arrow). Go6976 (0.5 ml of 0.05 mM solution in 0.1% DMSO) was administered 48 h later to a group of five animals, twice a week locally at the site of implantation of cells (♦). Control group (five animals) received 0.5 ml of 0.1% DMSO similarly (□). Growth of tumors was monitored by measurements of tumor volume at regular intervals (32).
as §2
Animal model. […] Palpable tumors were consistently detected within 10-15 days following implantation of the cells. Body weight and tumor volumes (32) were monitored weekly. […]

NF-κB = experiment: Level of active NF-κB in nuclear extracts by EMSA; assay type: cell-based, mouse; details: CSMLO cells
Method: FIG. 3. Active NF-κB complex in CSMLO cells: Stimulation by PMA and inhibition by Go6976. (A) Nuclear extracts (5 μg protein) from control and PMA-treated (20 ng/ml for 18 h) CSMLO cells were incubated in a standard EMSA reaction mixture containing [γ-^32P]-labeled double-stranded oligonucleotide plus Go6976 at the indicated μM concentrations for […] and subjected to nondenaturing PAGE (7, 31). The autoradiographic signals of the retarded NF-κB-[^32 P]DNA complex is indicated by the upper arrow and the free [γ-^32P]-labeled probe by the lower arrow. (B) The NF-κB-[^32P]DNA complex was characterized by supershift assay with anti-p50 (lanes 3 and 4) or p65 (B, lanes 5 and 6) antibodies. Nuclear extracts were incubated with specific antibodies for 15 min at room temperature, followed by incubation for an additional 30 min in the presence of [γ-^32p] double-stranded NF-κB oligonucleotide, and subjected to EMSA as described (7, 31). The supershifted complexes are indicated by the upper arrow.
Methods. Measurements of the level of active NF-κB by EMSA. The level of active NF-κB in the nuclear extracts of control and treated cells was determined by its DNA binding activity by EMSA as described 7, 30, 31). The [^32P]DNA-protein complex was identified as a retarded radioactive band in EMSA detected by autoradiography. […]

Compound: Cn1c2ccccc2c2c3c(c4c5ccccc5n(CCC#N)c4c21)CNC3=O [Go6976]
- histological changes in tumor tissue ([1]; Go6976-treated tumor-bearing animals, 11 days after initiation of treatment): extensive necrosis
- pycnotic cells in residual tumor tissue (suggestive of DNA fragmentation and apoptosis) ([1]; treated animal, magnification 100×): a large number of pycnotic cells with nuclear clumping
- pathological changes in liver and lung tissue ([1]; tumor-bearing or non-tumor-bearing animals, localized Go6976 treatment): did not show any microscopically detectable pathological changes
- physical defects as judged by body weight and agility ([2]; mice without tumor treated with Go6976): did not show any apparent physical defects
- mouse lethality ([2]; mouse, in vivo): without mouse lethality
- transactivation of ccD1 (ccD1): blocked transactivation of ccD1
- growth of cells under culture conditions (CSMLO cells): not affected
- tumor growth (tumor volume) (CSMLO-induced tumors; Go6976 0.5 ml of 0.05 mM in 0.1% DMSO, local, twice a week, started within 48 h of implantation of CSMLO cells, vs DMSO-treated group): substantial inhibition of tumor growth
- regression of full-grown tumors (tumor volume) (CSMLO-induced tumors; Go6976 administered locally 21 days after implantation of CSMLO cells, all of five animals): regressed sharply
- basal level of NF-κB (NF-κB): did not affect the basal level of NF-κB
- PMA-induced elevation of NF-κB activation (NF-κB; PMA 20 ng/ml, simultaneous treatment with Go6976 for 48 h): inhibited in a concentration-dependent manner
